Patent US6074864A, “Cloned DNA for synthesizing unique glucocerebrosidase” (The United States of America as represented by the …, priority 1994, dated 2000)

Target: T1, recombinant human glucocerebrosidase produced in baculovirus/SF9 system, enzyme in the culture media (Homo sapiens, UniProt P04062)
T1 construct: made in house; host or cells: Spodoptera frugiperda SF9 cells infected with recombinant baculovirus (AcNPV, pAc373/GC)
T1 sequence (P04062 40-536): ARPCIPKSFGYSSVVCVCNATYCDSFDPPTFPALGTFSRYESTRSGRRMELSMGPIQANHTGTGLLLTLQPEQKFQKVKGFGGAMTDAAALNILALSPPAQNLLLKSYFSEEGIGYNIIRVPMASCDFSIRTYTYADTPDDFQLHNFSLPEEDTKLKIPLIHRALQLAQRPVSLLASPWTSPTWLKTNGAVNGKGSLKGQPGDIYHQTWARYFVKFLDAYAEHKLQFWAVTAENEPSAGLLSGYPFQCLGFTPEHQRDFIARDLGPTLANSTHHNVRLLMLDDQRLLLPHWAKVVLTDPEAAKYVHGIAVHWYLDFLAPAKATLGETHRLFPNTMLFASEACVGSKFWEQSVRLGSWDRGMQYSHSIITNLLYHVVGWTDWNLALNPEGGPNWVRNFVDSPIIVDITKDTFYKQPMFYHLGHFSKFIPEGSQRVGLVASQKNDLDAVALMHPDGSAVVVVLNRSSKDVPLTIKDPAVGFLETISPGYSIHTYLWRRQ
Assay: Km determination, β-glucosidase activity with 4MUGP
Format: biochemical
Conditions: pH 5.9, 100 mM potassium phosphate, 0.15% Triton X-100, 0.125% sodium taurocholate
Experimental: Glucocerebrosidase assays: For pH profile and inhibition studies, glucocerebrosidase activity was measured using 100 mM potassium phosphate buffer containing 0.15% Triton X-100, 2.5 μl of β-D-[1-^14 C] glucocerebroside (7.5 mg/ml in sodium taurocholate at 50 mg/ml), and the sample in the total volume of 200 ul. Preincubations with conduritol-B-epoxide were for 30 min at 37° C. […] Purification of recombinant glucocerebrosidase was also monitored using 4MUGP.

Cc1cc(=O)oc2cc(O[C@@H]3O[C@H](CO)[C@@H](O)[C@H](O)[C@H]3O)ccc12 [4MUGP, 4-methylumbellifery-β-D-glucopyranoside]
Km: 3.3 mM
